Measured values published in US6413911B1, “Herbicidal sulfonylureas, their preparation and use” (BASF Aktiengesellschaft, priority 1992, dated 2002).

Experiments:
Polygonum persicaria = assay: greenhouse test, post-emergence herbicidal activity; assay type: in vivo; conditions: scale 0-100, Table I
Description: (§1) The cultivation containers used were plastic flowerpots containing loamy sand with about 3.0% humus as a substrate. The seeds of the test plants were sown separately according to species. For the purpose of post-emergence treatment, the test plants were first raised, depending on growth form, to a growth height of from 4 to 15 cm and only then treated with the active compounds suspended or emulsified in water. To do this, the test plants were either directly sown and raised in the same containers or they were first raised separately as seed plants and transplanted into the test containers a few days before the treatment. The application rate for post-emergence treatment was 0.06 kg/ha of a.s. (active substance). The plants were kept in a species-specific manner at 10-25° C. or 20-35° C. The test period extended over 2 to 4 weeks. During this time the plants were tended and their reaction to the individual treatments was assessed. Assessment was carried out on a scale of from 0 to 100. 100 here means no germination of the plants or complete destruction of at least the above-ground parts and 0 means no damage or normal course of growth. Comparison of the herbicidal activity of the exemplary compound No. 1.03 with the known comparison compound B on post-emergence application of 0.0313 or 0.0156 kg/ha of a.s. respectively in the greenhouse.

Veronica spp. = assay: as above; assay type: in vivo; conditions: scale 0-100, Table I
Description: as §1

Solanum nigrum = assay: as above; assay type: in vivo; conditions: scale 0-100, Table I
Description: as §1

Amaranthus retroflexus = assay: as above; assay type: in vivo; conditions: scale 0-100, Table I
Description: as §1

Sinapis alba = assay: as above; assay type: in vivo
Description: as §1, with “greenhouse. Comparison of the herbicidal activity of the exemplary compound No. 3.01 with the known comparison compound H on post-emergence application of 0.063 or 0.0313 kg/ha of a.s. respectively in the greenhouse.” for “greenhouse.”

Galium aparine = assay: as above; assay type: in vivo
Description: as §1, with “greenhouse. Comparison of the herbicidal activity of the exemplary compound No. 3.01 with the known comparison compound H on post-emergence application of 0.063 or 0.0313 kg/ha of a.s. respectively in the greenhouse.” for “greenhouse.”

[1] = system: broad-leaved undesired plants; assay: greenhouse test, post-emergence control of broad-leaved undesired plants; assay type: in vivo, Abutilon theophrasti; Sinapis alba; conditions: 0.06 kg/ha of a.s. post-emergence
Description: as §1, with “The plants used in the greenhouse tests were composed” for “Comparison”, “following species: [table]” for “herbicidal activity of the exemplary compound No. 1.03 with the known comparison compound B on post-emergence application of 0.0313 or 0.0156 kg/ha of a.s. respectively in the greenhouse.”

maize = assay: greenhouse test, post-emergence selectivity in crop plant maize; assay type: in vivo, Zea mays; conditions: 0.06 kg/ha of a.s. post-emergence
Description: as §1, with “The plants used in the greenhouse tests were composed” for “Comparison”, “following species: [table]” for “herbicidal activity of the exemplary compound No. 1.03 with the known comparison compound B on post-emergence application of 0.0313 or 0.0156 kg/ha of a.s. respectively in the greenhouse.”

Ipoinea spp. = assay: greenhouse test, post-emergence herbicidal activity; assay type: in vivo; conditions: scale 0-100, Table II
Description: (§2) The cultivation containers used were plastic flowerpots containing loamy sand with about 3.0% humus as a substrate. The seeds of the test plants were sown separately according to species. For the purpose of post-emergence treatment, the test plants were first raised, depending on growth form, to a growth height of from 4 to 15 cm and only then treated with the active compounds suspended or emulsified in water. To do this, the test plants were either directly sown and raised in the same containers or they were first raised separately as seed plants and transplanted into the test containers a few days before the treatment. The application rate for post-emergence treatment was 0.06 kg/ha of a.s. (active substance). The plants were kept in a species-specific manner at 10-25° C. or 20-35° C. The test period extended over 2 to 4 weeks. During this time the plants were tended and their reaction to the individual treatments was assessed. Assessment was carried out on a scale of from 0 to 100. 100 here means no germination of the plants or complete destruction of at least the above-ground parts and 0 means no damage or normal course of growth. Comparison of the herbicidal activity of the exemplary compound No. 3.01 with the known comparison compound H on post-emergence application of 0.063 or 0.0313 kg/ha of a.s. respectively in the greenhouse.

Alopecurus myosuroides = assay: as above; assay type: in vivo; conditions: scale 0-100, Table II
Description: as §2

Triticum aestivum = assay: greenhouse test, post-emergence damage to crop plant; assay type: in vivo; conditions: scale 0-100, Table II
Description: as §2

[2] = 0.0156 kg/ha of a.s., scale 0-100, Table I
[3] = 0.0313 kg/ha of a.s., scale 0-100, Table I
[4] = 0.0313 kg/ha of a.s., scale 0-100, Table II
[5] = 0.063 kg/ha of a.s., scale 0-100, Table II

In the case of `COC(=O)c1ccccc1S(=O)(=O)NC(=O)Nc1nc(OC)nc(C(F)(F)Cl)n1` [Example 1.03], the “Damage [%]” value (Polygonum persicaria; 0.0156 kg/ha of a.s.) is reported as 80%, the “Damage [%]” value (Polygonum persicaria; 0.0313 kg/ha of a.s.) is reported as 80% and the “Damage [%]” value (Veronica spp.; 0.0156 kg/ha of a.s.) is reported as 75%. For the same compound, the “Damage [%]” value (Veronica spp.; 0.0313 kg/ha of a.s.) was 85%, the “Damage [%]” value (Solanum nigrum; 0.0156 kg/ha of a.s.) was 90% and the “Damage [%]” value (Solanum nigrum; 0.0313 kg/ha of a.s.) was 90%. For the same compound, the “Damage [%]” value (Amaranthus retroflexus; 0.0156 kg/ha of a.s.) was 100%, the “Damage [%]” value (Amaranthus retroflexus; 0.0313 kg/ha of a.s.) was 100% and the “Damage [%]” value (Sinapis alba; [2]) was 90%. The “Damage [%]” value (Sinapis alba; [3]) was 90%, the “Damage [%]” value (Galium aparine; [2]) was 75% and the “Damage [%]” value (Galium aparine; [3]) was 95%. For the same compound, the “control of broad-leaved undesired plants” value [1] was “very well controlled” and the “selectivity in the exemplary crop plant maize” value (maize) was “outstanding selectivity”.
For `COc1nc(NC(=O)NS(=O)(=O)c2ccccc2C(F)(F)F)nc(C(F)F)n1` [Example 3.01], the “Damage [%]” value (Sinapis alba; [4]) was 98%, the “Damage [%]” value (Sinapis alba; [5]) was 98% and the “Damage [%]” value (Galium aparine; [4]) was 95%. For the same compound, the “Damage [%]” value (Galium aparine; [5]) was 95%, the “Damage [%]” value (Ipoinea spp.; 0.0313 kg/ha of a.s.) was 90% and the “Damage [%]” value (Ipoinea spp.; 0.063 kg/ha of a.s.) was 98%. For the same compound, the “Damage [%]” value (Alopecurus myosuroides; 0.0313 kg/ha of a.s.) was 98%, the “Damage [%]” value (Alopecurus myosuroides; 0.063 kg/ha of a.s.) was 98% and the “Damage [%]” value (Triticum aestivum; 0.0313 kg/ha of a.s.) was 0%. The “Damage [%]” value (Triticum aestivum; 0.063 kg/ha of a.s.) was 0%.
